Source: paper PMC3242765, “Inhibitors of Alphavirus Entry and Replication Identified with a Stable Chikungunya Replicon Cell Line and Virus-Based Assays” (PLoS ONE, 2011)
Counter-ions that a name gives are not always drawn.

Columns and labels:
[1] = system: CHIKV replicon; assay: microbe, parasite or virus in culture; assay type: cell-based, Chikungunya virus (CHIKV)
[2] = system: SFV-Rluc

SMILES	CHIKV replicon % left [1]	SFV replication % left (surviving fraction, remaining percentage of SFV replication) [2]
CC(=O)NS(=O)(=O)c1ccc(NC(=O)c2ccccc2C(=O)O)cc1 [Phthalylsulfacetamide]	85.4%	110.6%
O=C(O)c1ccccc1C(=O)Nc1ccc(S(=O)(=O)Nc2nccs2)cc1 [Phthalylsulfathiazole]	100.5%	113.7%
CC(C)NCC(O)COc1cccc2[nH]ccc12 (stereo not drawn) [Pindolol]	72.1%	86.2%
CC(=O)Nc1ccc(OCC(O)CNC(C)C)cc1 (stereo not drawn) [Practolol]	61.5%	117.3%
C[C@]12C=CC(=O)C=C1CC[C@@H]1[C@@H]2[C@@H](O)C[C@@]2(C)[C@H]1CC[C@]2(O)C(=O)CO [Prednisolone]	84.3%	104.2%
C[C@]12C=CC(=O)C=C1CC[C@@H]1[C@@H]2C(=O)C[C@@]2(C)[C@H]1CC[C@]2(O)C(=O)CO [Prednisone]	54.4%	85.0%
CCC1(c2ccccc2)C(=O)NCNC1=O [Primidone]	41.6%	127.1%
CCN(CC)CCNC(=O)c1ccc(N)cc1 [Procainamide hydrochloride]	100.4%	89.0%
CCN(CC)CCOC(=O)c1ccc(N)cc1 [Procaine hydrochloride]	84.3%	105.4%
CN1CCN(CCCN2c3ccccc3Sc3ccc(Cl)cc32)CC1 [Prochlorperazine]	71.9%	51.4%
Oc1cc(O)c2c(c1)O[C@H](c1ccc(O)c(O)c1)[C@H](O)[C@H]2c1c(O)cc(O)c2c1O[C@H](c1ccc(O)c(O)c1)[C@@H](O)C2 [Procyanidin B1]	104.7%	128.1%
Oc1cc(O)c2c(c1)O[C@H](c1ccc(O)c(O)c1)[C@H](O)[C@H]2c1c(O)cc(O)c2c1O[C@H](c1ccc(O)c(O)c1)[C@H](O)C2 [Procyanidin B2]	101.9%	93.7%
CC(CN1c2ccccc2Sc2ccccc21)N(C)C (stereo not drawn) [Promethazine hydrochloride]	39.2%	48.8%
CC(C)NCC(O)c1ccc2ccccc2c1 (stereo not drawn) [Pronethalol]	29.9%	62.9%
CC(C)[N+](C)(CCOC(=O)C1c2ccccc2Oc2ccccc21)C(C)C [Propantheline bromide]	104.2%	77.0%
CC(C)NCC(O)COc1cccc2ccccc12 (stereo not drawn) [Propranolol hydrochloride]	105.4%	74.0%
Cc1c(C(C)C)c(=O)n(-c2ccccc2)n1C [Propyphenazone]	81.1%	50.9%
CN(C)CCCN1c2ccccc2Sc2cccnc21.Cl [Prothipendyl hydrochloride]	11.2%	7.4%
CC(Cc1ccc2c(c1)OCO2)NCC(O)c1ccc(O)c(O)c1 (stereo not drawn) [Protokylol hydrochloride]	85.4%	128.4%
Cc1ncc(CO)c(CO)c1O [Pyridoxine hydrochloride]	71.1%	100.9%
COc1ccc(CN(CCN(C)C)c2ccccn2)cc1 [Pyrilamine maleate]	85.4%	73.7%
O=c1c(O)c(-c2ccc(O)c(O)c2)oc2cc(O)c(O)c(O)c12 [Quercetagetin]	85.2%	90.2%
COc1cc(O)c2c(=O)c(OC)c(-c3ccc(OC)c(OC)c3)oc2c1 [Quercetin-3,7,3',4'-tetramethylether]	58.2%	65.0%
O=c1c(O)c(-c2ccc(O)c(O)c2)oc2cc(O)cc(O)c12 [Quercetin]	110.2%	125.8%
C[C@@H]1O[C@@H](Oc2c(-c3ccc(O)c(O)c3)oc3cc(O)cc(O)c3c2=O)[C@H](O)[C@H](O)[C@H]1O.O.O [Quercitrin dihydrate]	45.2%	11.4%
Oc1cccc(O)c1 [Resorcin]	72.2%	83.0%
Oc1cccc(O)c1 [Resorcinol]	102.9%	67.1%
